Tests used:
Experiment in all cases: growth inhibition relative to DMSO control (fraction); higher = stronger growth inhibition
Conditions in all cases: treatment time: 6 days
HDFB = test system: HDFB
Protocol: (§1)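 Drug combination matrices: GSK-LSD1 (0, 1, 10, 100 nM) was combined with a second epigenetic drug (0 to 10 uM) on MCC lines PeTa and MKL-1 and on HDFB fibroblasts for 6 days, in quadruplicate. Viability was read by CellTiter-Glo 2.0. The response is the fraction of growth inhibition relative to DMSO, as input to synergyfinder Bliss analysis.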

MKL-1 = test system: MKL-1
Protocol: as §1

PeTa = test system: PeTa
Protocol: as §1

c1ccc([C@@H]2C[C@H]2NC2CCNCC2)cc1 [GSK-LSD1] + Cc1sc2c(c1C)C(c1ccc(Cl)cc1)=N[C@@H](CC(=O)OC(C)(C)C)c1nnc(C)n1-2 [(+)-JQ1]
growth inhibition
Conditions	partner concentration 0 nM	partner concentration 1 nM	partner concentration 10 nM	partner concentration 100 nM	partner concentration 1000 nM	partner concentration 10000 nM
HDFB, GSK-LSD1 concentration 0 nM	–	-0.0405	-0.0664	0.475	0.743	0.784
HDFB, GSK-LSD1 concentration 1 nM	0.0649	0.0389	0.0119	0.469	0.75	0.796
HDFB, GSK-LSD1 concentration 10 nM	0.0598	0.0402	0.0248	0.531	0.761	0.792
HDFB, GSK-LSD1 concentration 100 nM	0.0941	0.0548	0.115	0.607	0.773	0.817
MKL-1, GSK-LSD1 concentration 0 nM	–	-0.032	-0.0639	0.818	0.994	0.997
MKL-1, GSK-LSD1 concentration 1 nM	0.00341	-0.0162	-0.0305	0.799	0.994	0.998
MKL-1, GSK-LSD1 concentration 10 nM	0.349	0.33	0.364	0.849	0.999	1
MKL-1, GSK-LSD1 concentration 100 nM	0.792	0.766	0.766	0.917	0.999	1
PeTa, GSK-LSD1 concentration 0 nM	–	-0.0721	-0.114	0.804	0.95	0.976
PeTa, GSK-LSD1 concentration 1 nM	-0.00975	-0.0422	-0.106	0.67	0.945	0.968
PeTa, GSK-LSD1 concentration 10 nM	0.536	0.522	0.489	0.848	0.975	0.995
PeTa, GSK-LSD1 concentration 100 nM	0.819	0.765	0.749	0.925	0.995	0.998

c1ccc([C@@H]2C[C@H]2NC2CCNCC2)cc1 [GSK-LSD1] + Nc1ccccc1NC(=O)c1ccc(CNC(=O)OCc2cccnc2)cc1 [Entinostat]
growth inhibition
Conditions	partner concentration 0 nM	partner concentration 1 nM	partner concentration 10 nM	partner concentration 100 nM	partner concentration 1000 nM	partner concentration 10000 nM
HDFB, GSK-LSD1 concentration 0 nM	–	0.0329	0.154	0.451	0.823	0.933
HDFB, GSK-LSD1 concentration 1 nM	0.0914	0.124	0.111	0.467	0.822	0.944
HDFB, GSK-LSD1 concentration 10 nM	0.24	0.233	0.246	0.421	0.81	0.947
HDFB, GSK-LSD1 concentration 100 nM	0.259	0.26	0.254	0.473	0.798	0.949
MKL-1, GSK-LSD1 concentration 0 nM	–	0.0232	0.092	0.981	1	1
MKL-1, GSK-LSD1 concentration 1 nM	0.121	0.169	0.164	0.956	1	1
MKL-1, GSK-LSD1 concentration 10 nM	0.421	0.48	0.441	0.961	1	1
MKL-1, GSK-LSD1 concentration 100 nM	0.761	0.745	0.649	0.958	1	1
PeTa, GSK-LSD1 concentration 0 nM	–	-0.000953	0.132	0.963	1	1
PeTa, GSK-LSD1 concentration 1 nM	0.0344	0.0611	0.145	0.975	1	1
PeTa, GSK-LSD1 concentration 10 nM	0.459	0.465	0.561	0.998	1	1
PeTa, GSK-LSD1 concentration 100 nM	0.787	0.776	0.761	0.974	1	1

c1ccc([C@@H]2C[C@H]2NC2CCNCC2)cc1 [GSK-LSD1] + O=C(NC[C@H](O)CN1CCc2ccccc2C1)c1ccnc(NC2CCC2)c1 [GSK591]
growth inhibition
Conditions	partner concentration 0 nM	partner concentration 1 nM	partner concentration 10 nM	partner concentration 100 nM	partner concentration 1000 nM	partner concentration 10000 nM
HDFB, GSK-LSD1 concentration 0 nM	–	-0.0108	0.034	0.242	0.285	0.348
HDFB, GSK-LSD1 concentration 1 nM	-0.00486	0.0263	0.00718	0.199	0.324	0.372
HDFB, GSK-LSD1 concentration 10 nM	0.0391	0.0408	0.0239	0.215	0.342	0.42
HDFB, GSK-LSD1 concentration 100 nM	0.0873	0.0906	0.093	0.285	0.355	0.44
MKL-1, GSK-LSD1 concentration 0 nM	–	0.00697	0.0188	0.133	0.269	0.324
MKL-1, GSK-LSD1 concentration 1 nM	0.144	0.148	0.163	0.253	0.423	0.432
MKL-1, GSK-LSD1 concentration 10 nM	0.46	0.501	0.536	0.626	0.773	0.789
MKL-1, GSK-LSD1 concentration 100 nM	0.733	0.769	0.754	0.771	0.894	0.849
PeTa, GSK-LSD1 concentration 0 nM	–	-0.0144	-0.0251	0.0642	0.125	0.21
PeTa, GSK-LSD1 concentration 1 nM	0.11	0.135	0.102	0.201	0.287	0.302
PeTa, GSK-LSD1 concentration 10 nM	0.615	0.624	0.611	0.64	0.731	0.679
PeTa, GSK-LSD1 concentration 100 nM	0.761	0.746	0.73	0.779	0.866	0.797

Source: the supplement of paper PMC7645387
